The text below walks through data of patent publication US20220235011A1, “PHTHALAZINONE COMPOUNDS AND USE THEREOF” (ST PHARM CO., LTD., priority 2019, published 2022).

The assay has as its target T1, Sirt6 (Homo sapiens, UniProt Q8N6T7).
T1 construct: purchased CycLex CY-1156V2
The assay is described as follows: Measurement of Sirt6 Activity (CycLex Sirt6 Deacetylase Fluorometric Assay Kit). Type of assay: biochemical. To be noted: compound at 10 μM; fluorescence relative to the group without compound treatment (positive control group). The protocol: LC-MS (ESI, m/z)=430.1 (M+H^+) Experimental Example 1: Measurement of Sirt6 Activity Compounds having Sirt6 activity were selected using a CycLex Sirt6 Deacetylase Fluorometric Assay Kit (cat. CY-1156V2) manufactured by CycLex.
When a fluorescent-attached acetylated lysine substrate is treated with Sirt6 enzyme, Sirt6 deacetylates the acetylated lysine of the substrate and lysylendopeptidase cleaves the C-terminal peptide bond connected to the lysine, by which fluorescence is emitted. The activity of a compound is calculated by observing the intensity of fluorescence when the compound is treated along with Sirt6 enzyme. When treating the compound, the compound aids in the activity of Sirt6 enzyme, so as to result in stronger fluorescence. Therefore, by calculating the ratio of the stronger fluorescence relative to the fluorescence emitted from the group without compound treatment (i.e., positive control group), relative activity can be calculated.
Activity evaluation was performed according to the following procedure.
The compound whose activity is to be evaluated was prepared by diluting in phosphate-buffered saline (PBS) to 10 times of the desired concentration (e.g., when measuring Sirt6 assay activity at 10 μM, the compound is prepared at a concentration of 100 μM in PBS). 1 μL of a 1 Ox Sirt6 assay buffer, 0.8 μL of 50× fluoro-substrate peptide, 1 μL of nicotinamide adenine dinucleotide (NAD), 1 μL of a developer and 4.2 μL of H2O were mixed to prepare mixtures equal to the number of samples, and 8 μL was dispensed into each Black 384 well. An additional 1 μL of PBS was added to each of a “no enzyme group” and a positive control group, and 1 μL of the compound diluted in PBS was added to an activity evaluation group. Recombinant Sirt6 was 1:8 diluted in a 1×Sirt6 assay buffer, and 1 μL thereof was added to each of the positive control group and the activity evaluation group. 1 μL of the 1×Sirt6 assay buffer was added to the “no enzyme group.” After reacting at room temperature for one hour, results were measured with a fluorescence spectrometer (excitation: 490±10 nm, emission: 530±10 nm) to confirm the presence or absence of Sirt6 activity and measure the intensity of the activity.

T1 sequence (Q8N6T7 whole entry): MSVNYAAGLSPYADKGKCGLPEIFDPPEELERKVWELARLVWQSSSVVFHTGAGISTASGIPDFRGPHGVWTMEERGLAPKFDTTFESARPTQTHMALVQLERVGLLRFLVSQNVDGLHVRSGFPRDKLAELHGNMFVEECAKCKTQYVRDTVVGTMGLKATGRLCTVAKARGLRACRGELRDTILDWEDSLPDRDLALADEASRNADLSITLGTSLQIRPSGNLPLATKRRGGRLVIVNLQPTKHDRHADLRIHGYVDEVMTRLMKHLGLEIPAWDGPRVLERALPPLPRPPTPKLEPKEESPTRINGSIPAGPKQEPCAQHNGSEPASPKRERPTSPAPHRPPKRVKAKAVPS

As to `CN(c1cccc(-c2nn(-c3ccc(F)cc3)c(=O)c3ccccc23)c1)S(=O)(=O)C(F)(F)F` [Example 78, 1,1,1-Trifluoro-N-(3-(3-(4-fluorophenyl)-4-oxo-3,4-dihydrophthalazin-1-yl)phenyl)-N-methylmethane Sulfonamide], the “Sirt6 Activity (% activity, 10 μM)” value is recorded as 122 % activity.
For `CNS(=O)(=O)c1cccc(-c2nn(-c3c(F)cccc3F)c(=O)c3ccccc23)c1` [Example 107, 3-(3-(2,6-Difluorophenyl)-4-oxo-3,4-dihydrophthalazin-1-yl)-N-methylbenzenesulfonamide] the value was 233 % activity.
Under `CNS(=O)(=O)c1cccc(-c2nn(-c3ccc(F)cc3F)c(=O)c3cc(F)ccc23)c1` [Example 122, 3-(3-(2,4-Difluorophenyl)-6-fluoro-4-oxo-3,4-dihydrophthalazin-1-yl)-N-methylbenzenesulfonamide] stands 177 % activity; under `C/[N+]([O-])=C/c1ccc(F)c(-c2nn(-c3ccc(F)cc3)c(=O)c3ccccc23)c1` [Example 55, (Z)-1-(4-Fluoro-3-(3-(4-fluorophenyl)-4-oxo-3,4-dihydrophthalazin-1-yl)phenyl)-N-methylmethanimine Oxide], 151 % activity; under `CCS(=O)(=O)Nc1cccc(-c2cn(-c3ccc(F)cc3)c(=O)c3ccncc23)c1` [Example 149, N-(3-(2-(4-Fluorophenyl)-1-oxo-1,2-dihydropyrido[3,4-d]pyridin-4-yl)phenyl)ethanesulfonamide], 114.9 % activity.
For `CC(C)/[N+]([O-])=C/c1cccc(-c2nn(-c3ccc(F)c(Cl)c3)c(=O)c3ccccc23)c1` [Example 33, (Z)-1-(3-(3-(3-Chloro-4-fluorophenyl)-4-oxo-3,4-dihydrophthalazin-1-yl)phenyl)-N-isopropyl-methanimine Oxide] the value was 183 % activity.
Regarding `Cl.N[C@@H]1CCCCN(c2nn(C3CCCCC3)c(=O)c3ccccc23)C1` [Example 159, (R)-4-(3-Aminoazepan-1-yl)-2-cyclohexyl phthalazin-1(2H)-one-hydrochloride], the “Sirt6 Activity (% activity, 10 μM)” value came to 398.8 % activity.
Under `NC(=O)C1(c2cccc(-c3nn(-c4ccc(Cl)cc4)c(=O)c4ccccc34)c2)CC1` [Example 198, 1-(3-(3-(4-Chlorophenyl)-4-oxo-3,4-dihydrophthalazin-1-yl)phenyl)cyclopropan-1-carboxyamide] stands 225.40 % activity; under `O=c1c2ccccc2c(-c2cccc(NS(=O)(=O)C(F)(F)F)c2)nn1-c1ccc(F)cc1` [Example 77, 1,1,1-Trifluoro-N-(3-(3-(4-fluorophenyl)-4-oxo-3,4-dihydrophthalazin-1-yl)phenyl)methanesulfonamide], 194 % activity; under `CC(C)(C)/[N+]([O-])=C/c1ccc(-c2nn(-c3ccc(F)cc3)c(=O)c3ccccc23)s1` [Example 47, (Z)—N-tert-Butyl-1-(5-(3-(4-fluorophenyl)-4-oxo-3,4-dihydrophthalazin-1-yl)thiophen-2-yl)methanimine Oxide], 132 % activity.
For the compound `CC(C)(C)/[N+]([O-])=C/c1ccccc1-c1nn(-c2ccc(F)cc2)c(=O)c2ccccc12` [Example 42, (Z)—N-tert-Butyl-1-(2-(3-(4-fluorophenyl)-4-oxo-3,4-dihydrophthalazin-1-yl)phenyl)methanimine Oxide], the “Sirt6 Activity (% activity, 10 μM)” value is recorded as 161 % activity.
For `CS(=O)(=O)Nc1cccc(-c2nn(-c3ccc(F)cc3)c(=O)c3ccccc23)c1` [Example 10, N-(3-(3-(4-Fluorophenyl)-4-oxo-3,4-dihydrophthalazin-1-yl)phenyl)methanesulfonamide] the value was 198 % activity; for `CCS(=O)(=O)Nc1cccc(-c2nn(-c3ccccc3)c(=O)c3ccccc23)c1` [Example 1, N-(3-(4-Oxo-3-phenyl-3,4-dihydrophthalazin-1-yl)phenyl)ethanesulfonamide], 170 % activity; for `O=C(NO)c1cccc(-c2nn(-c3ccc(F)cc3)c(=O)c3ccccc23)c1` [Example 83, 3-(3-(4-Fluorophenyl)-4-oxo-3,4-dihydrophthalazin-1-yl)-N-hydroxybenzamide], 162 % activity.
In the case of `CC(C)(C(=O)O)c1cccc(-c2nn(-c3ccc(Cl)cc3F)c(=O)c3ccccc23)c1` [Example 201, 2-(3-(3-(4-Chloro-2-fluorophenyl)-4-oxo-3,4-dihydrophthalazin-1-yl)phenyl)-2-methylpropanoic Acid], the “Sirt6 Activity (% activity, 10 μM)” value worked out at 204.58 % activity.
For `NS(=O)(=O)c1cccc(-c2nn(-c3ccc(F)cc3F)c(=O)c3ccccc23)c1` [Example 126, 3-(3-(2,4-Difluorophenyl)-4-oxo-3,4-dihydrophthalazin-1-yl)benzenesulfonamide] the value was 185 % activity.
As for `CCS(=O)(=O)Nc1cccc(-c2nn(-c3cnn(C)c3)c(=O)c3ccccc23)c1` [Example 133, N-(3-(3-(1-Methyl-1H-pyrazol-4-yl)-4-oxo-3,4-dihydrophthalazin-1-yl)phenyl)ethanesulfonamide], the “Sirt6 Activity (% activity, 10 μM)” value came out at 118.8 % activity.
Under `CS(=O)(=O)c1cccc(-c2nn(-c3ccc(F)cc3F)c(=O)c3cc(F)ccc23)c1` [Example 120, 2-(2,4-Difluorophenyl)-7-fluoro-4-(3-(methylsulfonyl)phenyl)phthalazin-1(2H)-one] stands 178 % activity; under `CCS(=O)(=O)N(C)c1cccc(-c2nn(-c3ccc(-c4ccccc4)cc3)c(=O)c3ccccc23)c1` [Example 65, N-(3-(3-([1,1′-Biphenyl]-4-yl)-4-oxo-3,4-dihydrophthalazin-1-yl)phenyl)-N-methylethanesulfonamide], 96 % activity; under `C/[N+]([O-])=C/c1cccc(-c2nn(-c3ccccc3F)c(=O)c3ccccc23)c1` [Example 94, (Z)-1-(3-(3-(2-Fluorophenyl)-4-oxo-3,4-dihydrophthalazin-1-yl)phenyl)-N-methyl Methanimine Oxide], 272 % activity.
For `COC(=O)NS(=O)(=O)Nc1cccc(-c2nn(-c3ccc(F)cc3)c(=O)c3ccccc23)c1` [Example 20, Methyl (N-(3-(3-(4-fluorophenyl)-4-oxo-3,4-dihydrophthalazin-1-yl)phenyl)sulfamoyl) Carbamate] the value was 211 % activity.
Under `CC(C)S(=O)(=O)N(C)c1cccc(-c2nn(-c3ccc(F)cc3)c(=O)c3ccccc23)c1` [Example 73, N-(3-(3-(4-Fluorophenyl)-4-oxo-3,4-dihydrophthalazin-1-yl)phenyl)-N-methylpropan-2-sulfonamide] stands 124 % activity.
Consider `CN(C)S(=O)(=O)c1cccc(-c2nn(-c3ccc(F)cc3F)c(=O)c3ccccc23)c1` [Example 93, 3-(3-(2,4-Difluorophenyl)-4-oxo-3,4-dihydrophthalazin-1-yl)-N,N-dimethylbenzene Sulfonamide], for which the “Sirt6 Activity (% activity, 10 μM)” value is reported as 227 % activity.
Under `C/[N+]([O-])=C/c1ccccc1-c1nn(-c2ccc(F)cc2)c(=O)c2ccccc12` [Example 40, (Z)-1-(2-(3-(4-Fluorophenyl)-4-oxo-3,4-dihydrophthalazin-1-yl)phenyl)-N-methylmethanimine Oxide] stands 160 % activity; under `C/[N+]([O-])=C/c1cccc(-c2nn(-c3ccc(-c4ccccc4)cc3)c(=O)c3ccccc23)c1` [Example 84, (Z)-1-(3-(3-([1,1′-Biphenyl]-4-yl)-4-oxo-3,4-dihydrophthalazin-1-yl)phenyl)-N-methylmethanimine Oxide], 123 % activity.
Under `Cl.N[C@@H]1CCCCN(c2nn(-c3ccccc3F)c(=O)c3ccccc23)C1` [Example 175, (R)-4-(3-Aminoazepan-1-yl)-2-(2-fluorophenyl)phthalazin-1(2H)-one-hydrochloride] stands 155.3 % activity; under `O=C(O)C1(c2cccc(-c3nn(-c4ccc(Cl)cc4)c(=O)c4ccccc34)c2)CC1` [Example 195, 1-(3-(3-(4-Chlorophenyl)-4-oxo-3,4-dihydrophthalazin-1-yl)phenyl)cyclopropan-1-carboxylic Acid], 287.30 % activity.
For `CC(C)/[N+]([O-])=C/c1ccc(-c2nn(-c3ccc(F)cc3)c(=O)c3ccccc23)s1` [Example 46, (Z)-1-(5-(3-(4-Fluorophenyl)-4-oxo-3,4-dihydrophthalazin-1-yl)thiophen-2-yl)-N-isopropylmethanimine Oxide] the value was 154 % activity.
